Test results as given in the supplement of paper PMC13380429.

Key:
Settings in all cases: 72 h
Caco-2 [1] = assay: cell viability relative to DMSO; higher = less toxic
Calu-3 [2] = assay: as above
HepG2 [3] = assay: as above
U2OS [4] = assay: as above
Vero E6 [5] = assay: as above
Caco-2 [6] = assay: relative viability EC50 (midpoint between 100% and the lowest measured viability); higher = less toxic
Calu-3 [7] = assay: as above
HepG2 [8] = assay: as above
U2OS [9] = assay: as above
Vero E6 [10] = assay: as above
Caco-2 [11] = assay: drug sensitivity score (DSS) for viability; higher = more toxic; extreme values may be limits of the assay
Calu-3 [12] = assay: as above
HepG2 [13] = assay: as above
U2OS [14] = assay: as above
Vero E6 [15] = assay: as above

| Structure (SMILES) | cell viability (Caco-2 [1]; 1 nM) [%] | cell viability (Caco-2 [1]; 10 nM) [%] | cell viability (Caco-2 [1]; 100 nM) [%] | cell viability (Caco-2 [1]; 1000 nM) [%] | cell viability (Caco-2 [1]; 10000 nM) [%] | cell viability (Calu-3 [2]; 1 nM) [%] | cell viability (Calu-3 [2]; 10 nM) [%] | cell viability (Calu-3 [2]; 100 nM) [%] | cell viability (Calu-3 [2]; 1000 nM) [%] | cell viability (Calu-3 [2]; 10000 nM) [%] | cell viability (HepG2 [3]; 1 nM) [%] | cell viability (HepG2 [3]; 10 nM) [%] | cell viability (HepG2 [3]; 100 nM) [%] | cell viability (HepG2 [3]; 1000 nM) [%] | cell viability (HepG2 [3]; 10000 nM) [%] | cell viability (U2OS [4]; 1 nM) [%] | cell viability (U2OS [4]; 10 nM) [%] | cell viability (U2OS [4]; 100 nM) [%] | cell viability (U2OS [4]; 1000 nM) [%] | cell viability (U2OS [4]; 10000 nM) [%] | cell viability (Vero E6 [5]; 1 nM) [%] | cell viability (Vero E6 [5]; 10 nM) [%] | cell viability (Vero E6 [5]; 100 nM) [%] | cell viability (Vero E6 [5]; 1000 nM) [%] | cell viability (Vero E6 [5]; 10000 nM) [%] | relative viability EC50 (Caco-2 [6]) [µM] | relative viability EC50 (Calu-3 [7]) [µM] | relative viability EC50 (HepG2 [8]) [µM] | relative viability EC50 (U2OS [9]) [µM] | relative viability EC50 (Vero E6 [10]) [µM] | drug sensitivity score (Caco-2 [11]) | drug sensitivity score (Calu-3 [12]) | drug sensitivity score (HepG2 [13]) | drug sensitivity score (U2OS [14]) | drug sensitivity score (Vero E6 [15]) |
| --- | --- | --- | --- | --- | --- | --- | --- | --- | --- | --- | --- | --- | --- | --- | --- | --- | --- | --- | --- | --- | --- | --- | --- | --- | --- | --- | --- | --- | --- | --- | --- | --- | --- | --- | --- |
| O=C(Nc1ccc(Cl)nc1)c1ccc(Cl)cc1 | 103 | 90.2 | 97.8 | 98.8 | 102 | 94.9 | 90.6 | 96.6 | 94.2 | 102 | 97.5 | 109 | 106 | 103 | 110 | 95.6 | 94.3 | 101 | 93.2 | 95.7 | 95.4 | 98.7 | 95.9 | 94.1 | 100 | > 10 | > 10 | > 10 | > 10 | > 10 | 0 | 0 | 0 | 0 | 0 |
| O=C1CS[C@@H](c2ccccc2Cl)c2cc(Cl)ccc2N1 (racemic) | 92.3 | 101 | 92.2 | 98.6 | 90.1 | 94.5 | 100 | 96.7 | 100 | 105 | 100 | 98.7 | 96.4 | 110 | 102 | 106 | 104 | 94.4 | 101 | 102 | 96.6 | 97.6 | 99.1 | 97.8 | 104 | > 10 | > 10 | > 10 | > 10 | > 10 | 0 | 0 | 0 | 0 | 0 |
| C[C@@H]([C@H](O)c1ccc(O)cc1)N1CCC(Cc2ccccc2)CC1 (racemic) [ifenprodil] | 96.8 | 101 | 96.1 | 98 | 89.8 | 99.4 | 96.5 | 92 | 91.8 | 84.1 | 103 | 99.5 | 104 | 92.8 | 88.2 | 103 | 101 | 99.9 | 102 | 98.5 | 101 | 103 | 102 | 98.8 | 97.6 | > 10 | > 10 | > 10 | > 10 | > 10 | 0 | 0.6 | 0.3 | 0 | 0 |
